# Experimental data taken from patent US10732092B2, “Analysis of single cell mechanical phenotyping for metastatic detection” (University of Maryland, College Park, priority 2015, dated 2020).
# Tests used:
# [1] = test system: NIH 3T3 fibroblast cells; test: Inhibition of microtubules filament, Brillouin imaging of single suspended cell; format: cell-based; conditions: Noco 1 ug/mL for 30 minutes; single cell in suspension; FIG. 33A
# Experimental: (§1) Two drugs, cytochalasin D (cytoD) and nocodazole (Noco), were applied to 3T3 cells to inhibit the actin filament and microtubules filament, respectively. NIH 3T3 fibroblast cells purchased from American Type Culture Collection (ATCC) were used for all experiments. Cells were cultured following standard protocols. For inhibitation of microtubules filament, cells were first treated by Noco of 1 ug/mL for 30 minutes, and then harvested by trypsinization and re-suspended in a solution of phosphate-buffered saline (PBS) without Mg^2+ and Ca^2+ at a concentration of ˜0.1 million cells per ML before measurement. Due to the low concentration, few cells were captured by flowing. Instead, a single cell in suspension was imaged after it was delivered into the microfluidic devices. […] The Brillouin shift of the treated cell 3312 is 0.29 GHz higher, indicating a distinct stiffening of its nucleus. Considering the sensitivity of the instrument is ˜0.01 GHz, microtubules filament-inhibited cells were easily identified from normal cells based on the mechanical stiffening of the nucleus.
# [2] = test system: NIH 3T3 cell line; test: Brillouin flow cytometry of CytoD-treated suspended cells (setup of FIG. 12); format: cell-based
# Excerpt: FIG. 12 illustrates an exemplary embodiment of the current invention resulting from a novel combination of an epi-detection path to excite/collect Brillouin signal, a monitoring imaging modality, a microfluidic device (or other cell plating device), a Brillouin spectrometer and a computer with software that links all of these sub-components. A first incoming illuminating beam 1210 is focused onto one spot inside a microfluidic device 1230 by using a beam splitter 1211 and an objective lens 1212. The illuminating laser beam 1210 may be a laser beam. In one embodiment, the first incoming laser beam 1210 is focused into spot of 1 to 10 μm. The backward Brillouin scattering light is collected by the same objective lens 1212 and guided to a Brillouin spectrometer 1215 via the beam splitter 1211, a reflected mirror 1213, and a coupling lens 1214. The Brillouin spectrometer 1215 is a device that can measure the Brillouin frequency shift accurately. One example of the Brillouin spectrometer 1215 is disclosed in Scarcelli Polachech 2015 Nature Methods Above the microfluidic device 1230, there is a bright-field microscope consisting of a second light source 1220 (usually has a different wavelength from laser beam 1210), a beam splitter 1221, a tube lens 1222, an objective lens 1224, and a 2D image recording device 1225. The purpose of this microscope setup is to monitor the flowing status of the cells inside the microfluidic device 1230. In one embodiment, the microscope setup further contains a spectral filter 1223, which blocks the light from the laser beam 1210, but allows the light from a light source 1220 to pass. […]
# In yet another embodiment, a second approach, named as image-guided alignment, may be used to align the flowing cell to the focused spot of the laser beam 1210. […] Suppose a cell 1630 is flowing along y-direction (from top to bottom), once it appears in the field of view, its location (x1) and the horizontal shift (x0-x1) with respect to the focused spot 1620 can be determined. […] In this case, all of the measured data points were used to plot the histogram graph in FIG. 17a. […]
# [3] = test system: cells (nucleus); test: Brillouin and fluorescence 2D imaging of cells with and without CytoD treatment (setup of FIG. 21); format: cell-based; conditions: treated vs control group, FIGS. 23a, 23b
# Experimental: FIG. 21 illustrates a Brillouin spectroscopy setup according to another embodiment of the current invention. In this embodiment, a second optical modality is added to acquire a co-registered confocal fluorescence image of the cell simultaneously when the cell is probed by the Brillouin beam. The second optical modality may comprise a dichroic mirror 2127, a tube lens 2122, a pinhole mask 2126, and a photo-detector 2125. The dichroic mirror 2127 will let the laser beam 2110 and the Brillouin signal pass through but reflects the fluorescence light. Compared with the bright-field microscope of FIG. 12, the confocal configuration has better transverse and lateral optical resolution by rejecting fluorescence light from the out-of-focus plane. In practice, fluorescently labelled cells can be used to identify a sub-region of a cell (e.g., nucleus) and the focused spot of laser beam 2110 can be used to directly excite fluorescence emission. Then, the confocal configuration is used to detect the fluorescence emission light by a camera 2125. Based on the intensity of the fluorescence emission light, one can accurately determine the location of the focused spot (and thus the Brillouin signal) inside the cell so that the Brillouin signal can be assigned to a targeted point. […]
# As an example of classifying cells using the embodiment of FIG. 21, effect of CytoD on the cells was analyzed. […]
# [4] = test system: NIH 3T3 fibroblast cells; test: Inhibition of actin filament, Brillouin-based label-free flow cytometry; format: cell-based; conditions: cytoD 2 ug/mL for 10 minutes; 232 treated cells; FIG. 33B
# Experimental: as §1
# For inhibition of actin filament, cells were first treated by cytoD of 2 ug/mL for 10 minutes, and then harvested by trypsinization and re-suspended in a solution of phosphate-buffered saline (PBS) without Mg^2+ and Ca^2+ at a concentration of ˜1 million cells per mL before measurement. […]
# [5] = test system: adherent cells; test: Cytoskeletal stiffness of adherent cells treated with CytoD; format: cell-based
# [6] = test system: F-actin; conditions: attached cells treated with CytoD; cited from earlier work
# [7] = test system: NIH 3T3 cell line; test: Chromatin decondensation experiment, Brillouin mechanical cytometry of TSA-treated cells; format: cell-based; conditions: TSA 100 ng/mL, 2 hours
# Excerpt: A vertically-polarized laser beam 2628 is first reflected by the polarized beam splitter (PBS) 2634 and focused into the center of a microfluidic channel 2624 from the bottom side by objective lens 2632. In one embodiment, a 11-mW single-mode linearly-polarized 532-nm cw laser (Torus, Laser Quantum) was used as a light source to excite Brillouin scattering. Due to the quarter-wave plate (QWP) 2626, the focused beam was circularly polarized. The backward scattered light was collected by the same objective lens 2632 and passed through the QWP 2626 again. The circularly-polarized light is eventually turned into horizontally-polarized one which is totally transmitted by the PBS 2634. […] The location of the focused Brillouin beam was pre-determined by removing the long-pass filter (LP) 2612. […] In one embodiment, a CCD camera 2610 and the Brillouin spectrometer 2638 were synchronized by a LabVIEW program so that the spectrometer's data can be assigned to the corresponding location of the measured sample. […] When a cell passes through the beam location (white dots indicated by the arrows), its Brillouin shift is measured. […]
# Cells are cultured and re-suspended in a solution of phosphate-buffered saline (PBS) without Mg2+ and Ca2+. […] Cells without washing are then ready for fluorescence experiment. […]
structure (smiles),measurement,setting,value
"COC(=O)Nc1nc2ccc(C(=O)c3cccs3)cc2[nH]1 [Noco, nocodazole]","increase of averaged Brillouin shift of the nucleus, treated cell vs control",[1],0.29 GHz
"C=C1[C@@H](C)[C@H]2[C@H](Cc3ccccc3)NC(=O)[C@]23[C@H](OC(C)=O)/C=C/[C@@](C)(O)C(=O)[C@@H](C)C/C=C/[C@H]3[C@@H]1O [CytoD, cytochalasin D]",Brillouin frequency shift of cytoplasm peaks,"[2]; NIH 3T3, suspended after trypsinization, CytoD 0.5, 2, 5 ug/ml, FIGS. 20b-20e",almost no change
same,stiffness of the cells (average Brillouin frequency shift over the whole cell),"[2]; NIH 3T3, suspended in PBS, CytoD 0.5, 2 and 5 ug/ml, FIG. 20a",dose dependent effect
same,Brillouin frequency shift of nucleus peak (nucleus stiffness),"[2]; NIH 3T3, suspended, increasing dose of CytoD 0.5, 2, 5 ug/ml, FIGS. 20b-20e",nucleus is getting softer
same,nucleus stiffness (Brillouin signal vs fluorescence intensity),[3],much softened
same,"decrease of averaged Brillouin shift of the nucleus, treated group vs control group",[4],0.12 GHz
same,cytoskeletal stiffness,[5],markedly reduced
same,F-actin,[6],dramatically reduced
"CC(/C=C/C(=O)NO)=C\[C@@H](C)C(=O)c1ccc(N(C)C)cc1 [TSA, trichostatin A]",Brillouin shift of the nucleus after treatment,"[7]; control nucleus 7.80 GHz, 356 treated cells",7.71 GHz
same,Brillouin shift of the cytoplasm after treatment,[7]; same as control,7.56 GHz
